In US9145351B2, “Azole derivatives, methods for producing the same, intermediate thereof, agro-horticultural agents” (KUREHA CORPORATION, priority 2009, dated 2015):

Tests used:
Assay type in all cases: cell-based
[1] = tested on: Alternaria alternata; assay: Plate medium fungicidal assay, Alternaria blotch A.m (Experimental Example 5)
Summary of the method: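 Compound dissolved in DMSO and mixed into PDA plates at 50 mg/L and 5 mg/L; 4 mm mycelial plug inoculated. Colony diameter compared with untreated plates, % mycelial growth inhibition = 100(dc−dt)/dc, converted to one of 5 grades.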

[2] = tested on: Rhynchosporium secalis; assay: Plate medium fungicidal assay, barley leaf blotch R.sec (Experimental Example 5)
Summary of the method: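 Compound in DMSO mixed into PDA plate medium at 50 mg/L and 5 mg/L; 4 mm mycelial plug of the fungus inoculated. Colony diameter compared with untreated plates gives % mycelial growth inhibition R=100(dc−dt)/dc, scored on a 5-grade scale.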

[3] = tested on: Pseudocercoporella herpotrichoides; assay: Plate medium fungicidal assay, wheat eye spot P.h (Experimental Example 5)
Summary of the method: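 Compound in DMSO mixed into PDA agar for plates at 50 mg/L and 5 mg/L, inoculated with a 4 mm mycelial plug of Pseudocercosporella herpotrichoides. Colony diameter compared with untreated plates: % mycelial growth inhibition = 100(dc−dt)/dc, scored on a 5-grade scale.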

[4] = tested on: Sclerotinia sclerotiorum; assay: Plate medium fungicidal assay, Sclerotinia rot S.s (Experimental Example 5)
Summary of the method: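 A 4 mm mycelial plug was placed on PDA plates containing compound at 50 mg/L and 5 mg/L, added from DMSO solution. Colony diameters were compared with untreated plates, % mycelial growth inhibition was R=100(dc−dt)/dc, and scores fell into 5 grades.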

[5] = tested on: Pyricularia oryzae; assay: microbe, parasite or virus in culture
[6] = tested on: Fusarium graminearum; assay: microbe, parasite or virus in culture
[7] = tested on: Botritis cinerea; assay: Plate medium fungicidal assay, gray mold B.c (Experimental Example 5)
Summary of the method: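 Compounds in DMSO were incorporated into PDA plate medium at 50 mg/L and 5 mg/L, then inoculated with 4 mm mycelial plugs of Botrytis cinerea. Colony diameter versus untreated plates gave % mycelial growth inhibition, R=100(dc−dt)/dc, scored on a 5-grade scale.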

[8] = Pyricularia oryzae, read-out: growth inhibition grade P.o
[9] = Fusarium graminearum, read-out: growth inhibition grade F.g
[10] = plate medium containing compound at 5 mg/L
[11] = plate medium containing compound at 50 mg/L

| Structure (SMILES) | Growth inhibition grade, A.m [1, 10] | Growth inhibition grade, A.m [1, 11] | Growth inhibition grade, R.sec [2, 10] | Growth inhibition grade, R.sec [2, 11] | Growth inhibition grade, P.h [3, 10] | Growth inhibition grade, P.h [3, 11] | Growth inhibition grade, S.s [4, 10] | Growth inhibition grade, S.s [4, 11] | Growth inhibition grade, P.o [5, 10] | Growth inhibition grade, P.o [5, 11] | Growth inhibition grade, F.g [6, 10] | Growth inhibition grade, F.g [6, 11] | Growth inhibition grade, B.c [7, 10] | Growth inhibition grade, B.c [7, 11] | further results |
| --- | --- | --- | --- | --- | --- | --- | --- | --- | --- | --- | --- | --- | --- | --- | --- |
| C[C@]1(CBr)CC[C@@H](Cc2ccccc2)[C@]1(O)Cn1cncn1 (racemic) [Compound I-602, (1RS,2SR,5SR)-2-bromomethyl-5-benzyl-2-methyl-1-(1H-1,2,4-triazol-1-ylmethyl)cyclopentanol] |  |  |  |  |  |  |  |  |  |  |  |  |  |  | inhibition at 5 µg/mL ([1]; Alternaria alternata, plate medium, 5 mg/L, read-out: growth inhibition grade A.m): 60 to 80%; inhibition at 50 µg/mL ([1]; Alternaria alternata, plate medium, 50 mg/L, read-out: growth inhibition grade A.m): > 80%; inhibition at 5 µg/mL ([2]; Rhynchosporium secalis, plate medium, 5 mg/L, read-out: growth inhibition grade R.sec): > 80%; inhibition at 50 µg/mL ([2]; Rhynchosporium secalis, plate medium, 50 mg/L, read-out: growth inhibition grade R.sec): > 80%; inhibition at 5 µg/mL ([3]; plate medium, 5 mg/L, read-out: growth inhibition grade P.h): 40 to 60%; inhibition at 50 µg/mL ([3]; plate medium, 50 mg/L, read-out: growth inhibition grade P.h): > 80%; inhibition at 5 µg/mL ([4]; Sclerotinia sclerotiorum, plate medium, 5 mg/L, read-out: growth inhibition grade S.s): > 80%; inhibition at 50 µg/mL ([4]; Sclerotinia sclerotiorum, plate medium, 50 mg/L, read-out: growth inhibition grade S.s): > 80%; inhibition at 5 µg/mL [5, 8]: > 80%; inhibition at 50 µg/mL [5, 8]: > 80%; inhibition at 5 µg/mL [6, 9]: > 80%; inhibition at 50 µg/mL [6, 9]: > 80%; inhibition at 5 µg/mL ([7]; plate medium, 5 mg/L, read-out: growth inhibition grade B.c): 60 to 80%; inhibition at 50 µg/mL ([7]; plate medium, 50 mg/L, read-out: growth inhibition grade B.c): > 80% |
| CC1(C)CCC(Cc2ccc(Cl)cc2)C1(O)Cn1ncnc1S (racemic) [compound (2)] |  |  |  |  |  |  |  |  |  |  |  |  |  |  | Growth inhibition grade, A.m ([1]; plate medium, 5 mg/L): 4 (% Mycerial growth inhibition of less than 80 to 60% or higher); Growth inhibition grade, A.m ([1]; plate medium, 50 mg/L): 4 (% Mycerial growth inhibition of less than 80 to 60% or higher); Growth inhibition grade, R.sec ([2]; plate medium, 5 mg/L): 5 (% Mycerial growth inhibition of 80% or higher); Growth inhibition grade, R.sec ([2]; plate medium, 50 mg/L): 5 (% Mycerial growth inhibition of 80% or higher); Growth inhibition grade, P.h ([3]; plate medium, 5 mg/L): 2 (% Mycerial growth inhibition of less than 40 to 20% or higher); Growth inhibition grade, P.h ([3]; plate medium, 50 mg/L): 4 (% Mycerial growth inhibition of less than 80 to 60% or higher); Growth inhibition grade, S.s ([4]; plate medium, 5 mg/L): 3 (% Mycelial growth inhibition of less than 60 to 40% or higher); Growth inhibition grade, S.s ([4]; plate medium, 50 mg/L): 5 (% Mycerial growth inhibition of 80% or higher); Growth inhibition grade, P.o ([5]; plate medium, 5 mg/L): 4 (% Mycerial growth inhibition of less than 80 to 60% or higher); Growth inhibition grade, P.o ([5]; plate medium, 50 mg/L): 4 (% Mycerial growth inhibition of less than 80 to 60% or higher); Growth inhibition grade, F.g ([6]; plate medium, 5 mg/L): 3 (% Mycelial growth inhibition of less than 60 to 40% or higher); Growth inhibition grade, F.g ([6]; plate medium, 50 mg/L): 5 (% Mycerial growth inhibition of 80% or higher); Growth inhibition grade, B.c ([7]; plate medium, 5 mg/L): 2 (% Mycerial growth inhibition of less than 40 to 20% or higher); Growth inhibition grade, B.c ([7]; plate medium, 50 mg/L): 5 (% Mycerial growth inhibition of 80% or higher) |
| C[C@]1(CCl)CC[C@@H](Cc2ccc(OC(F)(F)F)cc2)[C@]1(O)Cn1cncn1 (relative stereo) [Compound I-79] | 5 (% Mycerial growth inhibition of 80% or higher) | 5 (% Mycerial growth inhibition of 80% or higher) | 5 (% Mycerial growth inhibition of 80% or higher) | 5 (% Mycerial growth inhibition of 80% or higher) | 5 (% Mycerial growth inhibition of 80% or higher) | 5 (% Mycerial growth inhibition of 80% or higher) | 5 (% Mycerial growth inhibition of 80% or higher) | 5 (% Mycerial growth inhibition of 80% or higher) | 5 (% Mycerial growth inhibition of 80% or higher) | 5 (% Mycerial growth inhibition of 80% or higher) | 5 (% Mycerial growth inhibition of 80% or higher) | 5 (% Mycerial growth inhibition of 80% or higher) | 5 (% Mycerial growth inhibition of 80% or higher) | 5 (% Mycerial growth inhibition of 80% or higher) |  |
| Cc1ccc(C[C@@H]2CC[C@](C)(CCl)[C@@]2(O)Cn2cncn2)cc1 (relative stereo) [Compound I-80] | 5 (% Mycerial growth inhibition of 80% or higher) | 5 (% Mycerial growth inhibition of 80% or higher) | 5 (% Mycerial growth inhibition of 80% or higher) | 5 (% Mycerial growth inhibition of 80% or higher) | 5 (% Mycerial growth inhibition of 80% or higher) | 5 (% Mycerial growth inhibition of 80% or higher) | 5 (% Mycerial growth inhibition of 80% or higher) | 5 (% Mycerial growth inhibition of 80% or higher) | 5 (% Mycerial growth inhibition of 80% or higher) | 5 (% Mycerial growth inhibition of 80% or higher) | 5 (% Mycerial growth inhibition of 80% or higher) | 5 (% Mycerial growth inhibition of 80% or higher) | 5 (% Mycerial growth inhibition of 80% or higher) | 5 (% Mycerial growth inhibition of 80% or higher) |  |
| C[C@]1(CCl)CC[C@@H](Cc2ccc(-c3ccccc3)cc2)[C@]1(O)Cn1cncn1 (relative stereo) [Compound I-82] | 5 (% Mycerial growth inhibition of 80% or higher) | 5 (% Mycerial growth inhibition of 80% or higher) | 5 (% Mycerial growth inhibition of 80% or higher) | 5 (% Mycerial growth inhibition of 80% or higher) | 5 (% Mycerial growth inhibition of 80% or higher) | 5 (% Mycerial growth inhibition of 80% or higher) | 5 (% Mycerial growth inhibition of 80% or higher) | 5 (% Mycerial growth inhibition of 80% or higher) | 5 (% Mycerial growth inhibition of 80% or higher) | 5 (% Mycerial growth inhibition of 80% or higher) | 5 (% Mycerial growth inhibition of 80% or higher) | 5 (% Mycerial growth inhibition of 80% or higher) | 5 (% Mycerial growth inhibition of 80% or higher) | 5 (% Mycerial growth inhibition of 80% or higher) |  |
| C[C@]1(CCl)CC[C@@H](Cc2ccccc2F)[C@]1(O)Cn1cncn1 (relative stereo) [Compound I-86] | 4 (% Mycerial growth inhibition of less than 80 to 60% or higher) | 5 (% Mycerial growth inhibition of 80% or higher) | 5 (% Mycerial growth inhibition of 80% or higher) | 5 (% Mycerial growth inhibition of 80% or higher) | 5 (% Mycerial growth inhibition of 80% or higher) | 5 (% Mycerial growth inhibition of 80% or higher) | 5 (% Mycerial growth inhibition of 80% or higher) | 5 (% Mycerial growth inhibition of 80% or higher) | 5 (% Mycerial growth inhibition of 80% or higher) | 5 (% Mycerial growth inhibition of 80% or higher) | 5 (% Mycerial growth inhibition of 80% or higher) | 5 (% Mycerial growth inhibition of 80% or higher) | 5 (% Mycerial growth inhibition of 80% or higher) | 5 (% Mycerial growth inhibition of 80% or higher) |  |
| C[C@]1(CCl)CC[C@@H](Cc2ccc(F)cc2F)[C@]1(O)Cn1cncn1 (relative stereo) [Compound I-88] | 4 (% Mycerial growth inhibition of less than 80 to 60% or higher) | 5 (% Mycerial growth inhibition of 80% or higher) | 5 (% Mycerial growth inhibition of 80% or higher) | 5 (% Mycerial growth inhibition of 80% or higher) | 5 (% Mycerial growth inhibition of 80% or higher) | 5 (% Mycerial growth inhibition of 80% or higher) | 5 (% Mycerial growth inhibition of 80% or higher) | 5 (% Mycerial growth inhibition of 80% or higher) | 5 (% Mycerial growth inhibition of 80% or higher) | 5 (% Mycerial growth inhibition of 80% or higher) | 5 (% Mycerial growth inhibition of 80% or higher) | 5 (% Mycerial growth inhibition of 80% or higher) | 5 (% Mycerial growth inhibition of 80% or higher) | 5 (% Mycerial growth inhibition of 80% or higher) |  |
